In patent US10273241B2 (President and Fellows of Harvard College, priority 2013, dated 2019):
Read-outs that look alike come from different tables or passages of the source.

Legend:
[1] = tested on: MV4;11; assay: Cell growth assay, MV4;11 AML cell line; assay type: cell-based, human
Description: (§1) For all other cell lines, compounds were serially diluted in medium and dispensed in triplicate in 96-well plates (0.1% DMSO final for assay) followed by the addition of exponentially growing cells at densities ranging from 5,000 to 30,000 cells/well. Cells were also seeded into 2 additional control wells containing vehicle (0.1% DMSO). […] To determine the estimated cell number in each well, cells that were counted in the control well were diluted 3-fold for an 8-point dilution series, and transferred to 384-well plates in duplicate, 20 μL per well. Cells in all other wells were diluted 4-fold and transferred to 384-well plates in duplicate, 20 μL per well. 20 μL of CellTiter-Glo (Promega) was subsequently added to all wells and luminescence was detected using a SPECTRAmax M3. The control well dilution series was fit to a linear regression and used as a standard for calculating the estimated cell number for each well. For days 7 and 10, total estimated cell number represents the split-adjusted theoretical cell number.

[2] = tested on: MOLM-14; assay: Cell growth assay, MOLM-14 AML cell line; assay type: cell-based, human
Description: as §1

[3] = Homo sapiens, MV4-11, 240 h, day 10, cells passaged, fresh compound added on days 3 and 7, read-out: MV 4;11 GI50 day 10
[4] = Homo sapiens, MOLM-14, 240 h, day 10, cells passaged, fresh compound added on days 3 and 7, read-out: MOL M14 G150 day 10
[5] = day 10, cells passaged, fresh compound added on days 3 and 7, read-out: MV 4;11 GI50 day 10
[6] = day 10, cells passaged, fresh compound added on days 3 and 7, read-out: MOL M14 G150 day 10
[7] = Homo sapiens, MV4-11, 168 h, day 7, printed as symbol, read-out: MV4;11 GI50 day 7
[8] = Homo sapiens, MOLM-14, 168 h, day 7, printed as symbol, read-out: MOL M14 GI50 day 7

Structure (SMILES) | GI50 [1, 3] | GI50 [2, 4] | also measured
C[C@]12CC=C3C=C4CC[C@@H]([N+](C)(C)[O-])CC45CC[C@]3(O5)[C@@H]1CC[C@@H]2c1ccc2ccncc2c1 [14ANO, 14A-N-Oxide] | 1.75 nM | 0.014 µM | 
C[C@]12CC=C3C=C4CC[C@@H](O)CC45CC[C@]3(O5)[C@@H]1CC[C@@H]2c1ccc2ccncc2c1 [17A, α-alcohol] |  |  | GI50 [1, 5]: 1 nM; GI50 [2, 6]: 0.006 µM
C[C@]12CC=C3C=C4CC[C@@H](N5CCC5)CC45CC[C@]3(O5)[C@@H]1CC[C@@H]2c1ccc2ccncc2c1 [18A, α-azetidine] | 1 nM | 0.003 µM | 
C[C@]12CC=C3C=C4CC[C@H](N5CCCC5)C[C@]45CC[C@]3(O5)[C@@H]1CC[C@@H]2c1ccc2ccncc2c1 [19B, β-pyrrolidine] | 8 nM | 0.01 µM | GI50 ([1]; Homo sapiens, MV4-11, day 7, fresh compound added on day 3, read-out: MV4;11 GI50 day 7): 15 nM; GI50 ([2]; Homo sapiens, MOLM-14, day 7, fresh compound added on day 3, read-out: MOL M14 GI50 day 7): 0.016 µM
CN[C@H]1CCC2=CC3=CC[C@]4(C)C(c5ccc6ccncc6c5)CC[C@H]4C34CC[C@]2(C1)O4 (stereo partly drawn) [24B, β-monomethylamine] | 20 nM | 0.05 µM | 
[2H]C([2H])([2H])N([C@H]1CCC2=CC3=CC[C@]4(C)C(c5ccc6ccncc6c5)CC[C@H]4[C@@]34CC[C@]2(C1)O4)C([2H])([2H])[2H] (stereo partly drawn) [26B, β-deuterodimethylamine] | 4 nM | 0.006 µM | 
COCCN(C)[C@H]1CCC2=CC3=CC[C@]4(C)C(c5ccc6ccncc6c5)CC[C@H]4[C@@]34CC[C@]2(C1)O4 (stereo partly drawn) [27B, β-2-methoxyethylmethylamine] | 7 nM | 0.01 µM | 
COCCN(CCOC)[C@H]1CCC2=CC3=CC[C@]4(C)C(c5ccc6ccncc6c5)CC[C@H]4[C@@]34CC[C@]2(C1)O4 (stereo partly drawn) [28B, β-bis-2-methoxyethylamine] | 9.5 nM | 0.015 µM | 
CN(CCF)[C@H]1CCC2=CC3=CC[C@]4(C)C(c5ccc6ccncc6c5)CC[C@H]4[C@@]34CC[C@]2(C1)O4 (stereo partly drawn) [29B, β-2-fluoroethylmethylamine] | 7 nM | 0.014 µM | 
CN(CC(F)F)[C@H]1CCC2=CC3=CC[C@]4(C)C(c5ccc6ccncc6c5)CC[C@H]4[C@@]34CC[C@]2(C1)O4 (stereo partly drawn) [30B, β-2,2-difluoroethylmethylamine] | 20 nM | 0.055 µM | 
C[C@]12CC=C3C=C4CC[C@H](N5[C@H]6CC[C@@H]5CC6)C[C@]45CC[C@]3(O5)[C@@H]1CC[C@@H]2c1ccc2ccncc2c1 [31B, β-7-Azabicyclo[2.2.1]heptane] | 75 nM | 0.1 µM | 
CC(C)N[C@H]1CCC2=CC3=CC[C@]4(C)[C@@H](c5ccc6ccncc6c5)CC[C@H]4[C@@]34CC[C@]2(C1)O4 [32B, β-isopropylamine] | 27 nM | 0.055 µM | 
CC(C)N(C)[C@H]1CCC2=CC3=CC[C@]4(C)[C@@H](c5ccc6ccncc6c5)CC[C@H]4[C@@]34CC[C@]2(C1)O4 [33B, β-isopropylmethylamine] | 22 nM | 0.06 µM | 
CCN(C(C)C)[C@H]1CCC2=CC3=CC[C@]4(C)[C@@H](c5ccc6ccncc6c5)CC[C@H]4[C@@]34CC[C@]2(C1)O4 [34B] |  |  | GI50 ([1]; Homo sapiens, MV4-11, 240 h, read-out: MV 4;11 GI50 day 10 (nM)): 8.5 nM; IC50 ([2]; Homo sapiens, MOLM-14, 240 h, read-out: MOL M14 G150 day 10 (nM)): 15 nM
C[C@]12CC=C3C=C4CC[C@H](N5CC[C@@H](F)C5)C[C@]45CC[C@]3(O5)[C@@H]1CC[C@@H]2c1ccc2ccncc2c1 [35B, β-(R)-3-fluoropyrrolidine] | 80 nM | 0.16 µM | 
C[C@]12CC=C3C=C4CC[C@H](N5CC[C@H](F)C5)C[C@]45CC[C@]3(O5)[C@@H]1CC[C@@H]2c1ccc2ccncc2c1 [36B, β-(S)-3-fluoropyrrolidine] | 19 nM | 0.095 µM | 
C[C@]12CC=C3C=C4CC[C@H](N5CCC(F)(F)C5)C[C@]45CC[C@]3(O5)[C@@H]1CC[C@@H]2c1ccc2ccncc2c1 [37B, β-3,3-difluoropyrrolidine] | 65 nM | 0.2 µM | 
C[C@]12CC=C3C=C4CC[C@H](N5CCC6(COC6)C5)C[C@]45CCC3(O5)[C@@H]1CCC2c1ccc2ccncc2c1 (stereo partly drawn) [38B, β-2-oxa-6-azaspiro[3.4]octane] | 10 nM | 0.01 µM | 
C[C@]12CC=C3C=C4CC[C@H](NC5CC5)C[C@]45CCC3(O5)[C@@H]1CCC2c1ccc2ccncc2c1 (stereo partly drawn) [39B, β-cyclopropylamine] | 17 nM | 0.03 µM | 
CN(C1CC1)[C@H]1CCC2=CC3=CC[C@]4(C)C(c5ccc6ccncc6c5)CC[C@H]4C34CC[C@]2(C1)O4 (stereo partly drawn) [40B, β-Cyclopropylmethylamine] | 16 nM | 0.025 µM | 

Structure (SMILES) | GI50 [1, 3] | GI50 [2, 4] | also measured
CC1(N[C@H]2CCC3=CC4=CC[C@]5(C)C(c6ccc7ccncc7c6)CC[C@H]5C45CC[C@]3(C2)O5)COC1 (stereo partly drawn) [41B, β-3-methyl-3-oxetanamine] | 8 nM | 0.016 µM | 
CN(CC1(C)COC1)[C@H]1CCC2=CC3=CC[C@]4(C)[C@@H](c5ccc6ccncc6c5)CC[C@H]4[C@@]34CCC2(C1)O4 [42B, β-N-methyl-1-(3-methyl-3-oxetanyl)methanamine] | 7.5 nM | 0.02 µM | 
CC(C)(C)N[C@@H]1CCC2=CC3=CC[C@]4(C)C(c5ccc6ccncc6c5)CC[C@H]4C34CC[C@]2(C1)O4 (stereo partly drawn) [43A, α-t-butylamine] | 175 nM | 0.2 µM | 
CC(C)(C)N[C@H]1CCC2=CC3=CC[C@]4(C)C(c5ccc6ccncc6c5)CC[C@H]4C34CC[C@]2(C1)O4 (stereo partly drawn) [43B, β-t-butylamine] | 95 nM | 0.15 µM | 
CN(C)[C@H]1CCC2=CC3=CC[C@]4(C)[C@@H](NCc5cccnc5)CC[C@H]4C34CC[C@]2(C1)O4 [46B, β-dimethylamine aminomethylpyridine] |  |  | GI50 [1, 7]: > 1000 nM; GI50 [2, 8]: > 1 µM
CN(C)[C@H]1CCC2=CC3=CC[C@]4(C)C(C(=O)Nc5cccnc5)=CC[C@H]4[C@@]34CCC2(C1)O4 [49B, β-dimethylamine 17,18-unsaturated amidepyridine] |  |  | GI50 [1, 7]: > 1000 nM; GI50 [2, 8]: > 1 µM
CN(C)[C@H]1CCC2=CC3=CC[C@]4(C)[C@@H](C(=O)Nc5cccnc5)CC[C@H]4[C@@]34CCC2(C1)O4 [50B, β-dimethylamine amidepyridine] |  |  | GI50 [1, 7]: > 1000 nM; GI50 [2, 8]: > 1 µM
CN(C)[C@H]1CCC2=CC3=CC[C@]4(C)C(c5ccc6cnncc6c5)=CC[C@H]4C34CC[C@]2(C1)O4 [55B, β-dimethylamine 17,18-unsaturated phthalazine] |  |  | GI50 [1, 7]: > 1000 nM; GI50 [2, 8]: > 1 µM
CN(C)[C@H]1CCC2=CC3=CC[C@]4(C)C(c5ccc6cn[nH]c6c5)=CC[C@H]4C34CC[C@]2(C1)O4 [58B, β-dimethylamine 17,18-unsaturated 6-indazole] |  |  | GI50 [1, 7]: > 1000 nM; GI50 [2, 8]: > 1 µM
CN(C)[C@H]1CCC2=CC3=CC[C@]4(C)C(c5ccc6[nH]ncc6c5)=CC[C@H]4C34CC[C@]2(C1)O4 [61B, β-dimethylamine 17,18-unsaturated 5-indazole] |  |  | GI50 [1, 7]: > 1000 nM; GI50 [2, 8]: > 1 µM
C[C@]12CC=C3C=C4CC[C@H](N)CC45CC[C@]3(O5)[C@@H]1CC[C@@H]2c1ccc2ccncc2c1 [62B, β-primaryamine] | 20 nM | 0.07 µM | 
CO[C@@H]1CCC2=CC3=CC[C@]4(C)[C@@H](c5ccc6ccncc6c5)CC[C@H]4[C@@]34CCC2(C1)O4 [64A, α-methylether] |  |  | GI50 [1, 5]: 15 nM; GI50 [2, 6]: 0.045 µM
C[C@]12CC=C3C=C4CC[C@H](N5C[C@H](O)C[C@H]5C(=O)O)C[C@]45CCC3(O5)[C@@H]1CCC2c1ccc2ccncc2c1 (some centres unmarked) [65B] | 3 nM | 0.016 µM | 
CNC(=O)O[C@@H]1CCC2=CC3=CC[C@]4(C)[C@@H](c5ccc6ccncc6c5)CC[C@H]4[C@@]34CCC2(C1)O4 [68A, α-monomethylcarbamate] |  |  | GI50 [1, 5]: 120 nM; GI50 [2, 6]: 0.15 µM
CC1(O)CN([C@@H]2CCC3=CC4=CC[C@]5(C)[C@@H](c6ccc7ccncc7c6)CC[C@H]5C45CC[C@]3(C2)O5)C1 [69A, α-hydroxymethylazetidine] | 9.5 nM | 0.03 µM | 
C[C@]12CC=C3C=C4CC[C@@H](N5CC(O)C5)C[C@]45CCC3(O5)[C@@H]1CC[C@@H]2c1ccc2ccncc2c1 [70A, α-hydroxyazetidine] | 7 nM | 0.012 µM | 
C[C@]12CC=C3C=C4CC[C@@H](NCCS(N)(=O)=O)C[C@]45CCC3(O5)[C@@H]1CC[C@@H]2c1ccc2ccncc2c1 [71A] | 2 nM | 0.02 µM | 
C[C@]12CC=C3C=C4CC[C@H](NCCS(N)(=O)=O)C[C@]45CCC3(O5)[C@@H]1CC[C@@H]2c1ccc2ccncc2c1 [71B] | 18 nM | 0.05 µM | 
C[C@]12CC=C3C=C4CC[C@@H](NCC5(O)COC5)CC45CC[C@]3(O5)[C@@H]1CC[C@@H]2c1ccc2ccncc2c1 [72A, α-hydroxyaminomethyloxetane] | 8 nM | 0.004 µM | 
